Assay results reported in patent US6559148B1, “Use of P2Y purinoreceptor antagonist for the treatment of ischemia reperfusion” (Consiglio Nazionale delle Ricerche, priority 1998, dated 2003).
Entries after “also recorded” stand apart in the source; their conditions may differ.

System: Wistar albino adult male rats
Test: Transient global cerebral ischemia by 4-vessel occlusion (4-VO, Pulsinelli and Brierley method) for 30 minutes
Format: in vivo, rat
Settings: 30 minutes global ischemia
Experimental: By way of non-limiting example of the present invention, some experimental examples are given herein that show the effectiveness of the compounds modulating P2 purinoceptors, and in particular Basilen Blue, in the reduction of mortality induced by global ischemia. In particular, for such analysis Wistar albino adult male rats weighting 220-250 g have been utilized. Basilen Blue was diluted in saline solution. After a 12 hour fast, transient cerebral ischemia was induced in the rats by the Pulsinelli and Brierley method (Stroke, 10:267-272, 1979). The animals were anesthetized with 2% halotane in a mixture of 30% O2 and 70% N2O. Both vertebral arteries were electrically cauterized and thin claps from Teflon were loosely and reversibly placed around the common carotid arteries. The animals were allowed to recover from anesthesia and kept one per cage, under standard conditions of humidity, temperature and light. The following day, the rats were submitted to a mild anesthesia always with halothane and the claps previously placed around the common carotid arteries were tightened to produce the occlusion of 4 vessels (4-VO) for 30 minutes (in 24 animals). The absence of locomotion activity, the loss of corneal and righting reflexes and the presence of paralytic mydriasis, which took place after 1-2 minutes from the carotid occlusion, were the criteria according to which the animals were considered ischemic and included in the study. The rectal temperature was monitored during the following recovery period and kept constant at a temperature between 36.5 and 37° C. until the rats recovered the locomotion activity and the thermal homeostasis. […]
Wistar albino male rats, having a mean weight of 220-250 g, treated with saline solution (controls) or Basilen Blue were submitted for 30 minutes to global cerebral ischemia, the whole as described previously. The mortality was then monitored for two days following the carotid occlusion in a total of 24 animals (11 controls and 13 treated with Basilen Blue). […]

## Basilen Blue E-3G (Reactive Blue 2)
2 x 4,5 mg/kg i.p., vs saline controls
  neuronal damage to the hippocampus (neurons lost in CA1-CA2 sectors): less severe
2 x 4,5 mg/kg i.p., vs saline controls, p>0,05 as printed
  mortality index compared to control group: significantly lower; also recorded: reduces the mortality
Basilen Blue 4,5 mg/kg i.p. 15 minutes before and 3 hours after carotid occlusion, control group 5 out of 11 died
  animals died (mortality) within two days from the carotid occlusion: 3 out of the 13
